{"source": "patent US9434692B2", "about": "“Pyrazole derivatives as modulators of the 5-HT2A serotonin receptor useful for the treatment of disorders related thereto” (Arena Pharmaceuticals, Inc., priority 2006, dated 2016)", "key": {"[1]": {"system": "DOI-induced hypolocomotion", "test": "Attenuation of DOI-induced hypolocomotion in rats", "format": "in vivo, Sprague-Dawley rats", "conditions": "compound 1-10 mg/kg p.o., DOI 1 mg/kg s.c.", "description": "In this example, compounds of the invention were tested for inverse agonist activity by determining whether these compounds could attenuate DOI-induced hypolocomotion in rats in a novel environment. DOI is a potent 5-HT2A/2C receptor agonist that crosses the blood-brain barrier. The standard protocol used is described briefly below.\nMale Sprague-Dawley rats weighing between 200-350 g were used for all tests. Rats were housed three to four per cage.\n(R)-DOI HCl (C11H16INO2.HCl) was obtained from Sigma-Aldrich, and was dissolved in 0.9% saline. Compounds of the invention were synthesized at Arena Pharmaceuticals Inc., San Diego, Calif., and were dissolved in 100% PEG400. DOI was injected s.c. in a volume of 1 mL/kg, while compounds of the invention were administered p.o. in a volume of 1 mL/kg.\nThe “Motor Monitor” (Hamilton-Kinder, Poway, Calif.) was used for all activity measurement. This apparatus recorded rears using infrared photobeams. […]\nIn determining the effects of compounds of the invention on DOI-induced hypoactivity, animals were first injected with vehicle or the compound of the invention (1-10 mg/kg) in their home cages. […] Ten minutes after DOI administration, animals were placed into the activity apparatus and rearing activity was measured for 10 min.\nResults (total rears over 10 minutes) were analyzed by t-test. […]"}, "diabetic rats": {"system": "diabetic rats", "conditions": "cited from earlier work; for reduction in saphenous sensory conduction velocity: 14.9% reduction in diabetic rats; for correction of sciatic motor conduction deficit: 19.8% deficit in diabetic rats, range over all three drugs; for reduction in sciatic endoneurial blood flow: 44.7% reduction in diabetic rats"}, "diabetic nephropathy": {"system": "diabetic nephropathy", "conditions": "24 months of treatment; cited from earlier work"}, "pain in rats": {"system": "pain in rats", "conditions": "cited from earlier work"}, "glaucoma patients": {"system": "glaucoma patients", "conditions": "cited from earlier work"}, "[2]": {"system": "lower back pain, leg pain and numbness", "conditions": "humans, lumbar disc herniation; cited from earlier work"}, "[3]": {"target": "human 5-HT2A serotonin receptor (Homo sapiens (Human), UniProt P28223)", "test": "[125I]DOI radioligand binding assay", "conditions": "0.5 nM [125I]DOI, COS7 membranes, recombinant human 5-HT2A", "description": "Compounds of the invention were tested for their ability to bind to a 5-HT2A serotonin receptor clone membrane preparation using a radioligand binding assay. Briefly, COS cells were transiently transfected with a pCMV expression vector containing a human 5-HT2A receptor (for the sequence of the receptor see U.S. Pat. No. 6,541,209, SEQ ID NO:24).\nCOS7 cells transfected with recombinant human 5-HT2A serotonin receptors were cultured for 48 h post transfection, collected, washed with ice-cold phosphate buffered saline, pH 7.4 (PBS), and then centrifuged at 48,000 g for 20 min at 4° C. The cell pellet was then resuspended in wash buffer containing 20 mM HEPES pH 7.4 and 0.1 mM EDTA, homogenized on ice using a Brinkman polytron, and recentrifuged at 48,000 g for 20 min at 4° C. The resultant pellet was then resuspended in 20 mM HEPES, pH 7.4, homogenized on ice, and centrifuged (48,000 g for 20 min at 4° C.). Crude membrane pellets were stored at −80° C. until used for radioligand binding assays.\nRadioligand binding assays for human 5-HT2A serotonin receptor was conducted using the 5-HT2 agonist [^125I]DOI as radioligand. To define nonspecific binding, 10 μM DOI was used for all assays. For competitive binding studies, 0.5 nM [^125I]DOI was used and compounds were assayed over a range of 0.01 nM to 10 μM. Assays were conducted in a total volume of 200 μl in 96-well Perkin Elmer GF/C filter plates in assay buffer (50 mM Tris-HCl, pH 7.4, 0.5 mM EDTA, 5 mM MgCl2, and 10 μM pargyline). Assay incubations were performed for 60 min at room temperature and were terminated by rapid filtration under vacuum pressure of the reaction mixture over Whatman GF/C glass fiber filters presoaked in 0.5% PEI using a Brandell cell harvester. Filters were then washed several times with ice-cold wash buffer (50 mM Tris-HCl, pH 7.4). Plates were then dried at room temperature and counted in a Wallac MicroBeta scintillation counter."}, "JC virus": {"system": "JC virus", "conditions": "cited from earlier work"}, "[4]": {"system": "DOCA-salt induced hypertension", "conditions": "rats; cited from earlier work"}, "normal volunteers": {"system": "normal volunteers", "test": "Afternoon nap model of insomnia in normal volunteers", "format": "in vivo, human", "text": "APD125, a potent and selective 5-HT2A serotonin receptor inverse agonist is a member of the genus disclosed in the European Patent EP1558582. […] Sleep onset latency was not decreased by APD125. In the afternoon nap model, APD125 decreased microarousals, the number of sleep stage shifts, and number of awakenings after sleep onset."}, "healthy adults": {"system": "healthy adults", "test": "Phase 1 trials, waking EEG", "format": "in vivo, human"}, "[5]": {"system": "spontaneously hypertensive rats", "conditions": "cited from earlier work"}, "heatstroke": {"system": "heatstroke", "conditions": "in vivo; cited from earlier work"}}}
{"smiles": "Cn1nc(C(=O)N2CCN(CC(=O)c3ccc(F)cc3)CC2)cc1C(F)(F)F", "note": "[Compound 35, 1-(4-Fluoro-phenyl)-2-[4-(1-methyl-5-trifluoromethyl-1H-pyrazole-3-carbonyl)-piperazin-1-yl]-ethanone]", "values": [{"measurement": "attenuation of DOI-induced hypolocomotion (total rears over 10 minutes)", "setting": "[1]", "result": "attenuated DOI-induced hypolocomotion"}]}
{"smiles": "COc1cccc(CCc2ccccc2OCC(CN(C)C)OC(=O)CCC(=O)O)c1", "note": "(centres unmarked) [sarpogrelate]", "values": [{"measurement": "reduction in saphenous sensory conduction velocity", "setting": "diabetic rats", "result": "completely reversed"}, {"measurement": "correction of sciatic motor conduction deficit", "setting": "diabetic rats", "result": "82.6-99.7%"}, {"measurement": "reduction in sciatic endoneurial blood flow", "setting": "diabetic rats", "result": "completely reversed"}, {"measurement": "urinary albumin excretion level", "setting": "diabetic nephropathy", "result": "significantly reduced"}, {"measurement": "analgesic effect on thermal induced pain", "setting": "pain in rats; intraperitoneal administration", "result": "significant analgesic effect"}, {"measurement": "analgesic effect on inflammatory pain", "setting": "pain in rats; intrathecal or intraperitoneal administration", "result": "significant analgesic effect"}, {"measurement": "intra ocular pressure (IOP)", "setting": "glaucoma patients", "result": "significantly lower IOP"}, {"measurement": "treatment of lower back pain, leg pain and numbness associated with sciatica", "setting": "[2]", "result": "effective treatment"}]}
{"smiles": "Cn1nc(C(=O)N2CCN(CC(=O)c3ccc(F)cc3)CC2)cc1-c1ccco1", "note": "[Compound 66, 1-(4-Fluoro-phenyl)-2-[4-(5-furan-2-yl-1-methyl-1H-pyrazole-3-carbonyl)-piperazin-1-yl]-ethanone]", "values": [{"measurement": "IC50", "setting": "[3]", "result": 4.8, "unit": "nM"}]}
{"smiles": "CCn1cc(Cl)c(C(=O)N2CCN(CC(=O)c3ccc(F)cc3)CC2)n1", "note": "[Compound 7, 2-[4-(4-Chloro-1-ethyl-1H-pyrazole-3-carbonyl)-piperazin-1-yl]-1-(4-fluoro-phenyl)-ethanone]", "values": [{"measurement": "attenuation of DOI-induced hypolocomotion (total rears over 10 minutes)", "setting": "[1]", "result": "attenuated DOI-induced hypolocomotion"}]}
{"smiles": "Cc1nc2sccn2c(=O)c1CCN1CCC(=C(c2ccc(F)cc2)c2ccc(F)cc2)CC1", "note": "[ritanserin]", "values": [{"measurement": "reduction in saphenous sensory conduction velocity", "setting": "diabetic rats", "result": "completely reversed"}, {"measurement": "correction of sciatic motor conduction deficit", "setting": "diabetic rats", "result": "82.6-99.7%"}, {"measurement": "reduction in sciatic endoneurial blood flow", "setting": "diabetic rats", "result": "completely reversed"}, {"measurement": "JC virus infection of human glial cells", "setting": "JC virus", "result": "inhibited JC virus infection of human glial cells"}]}
{"smiles": "Cc1[nH]nc(C(=O)N2CCN(CC(=O)c3ccc(F)cc3)CC2)c1F", "note": "[Compound 42, 2-[4-(4-Fluoro-5-methyl-1H-pyrazole-3-carbonyl)-piperazin-1-yl]-1-(4-fluoro-phenyl)-ethanone]", "values": [{"measurement": "IC50", "setting": "[3]", "result": 11, "unit": "nM"}]}
{"smiles": "CN1CCN2c3ccccc3Cc3ccccc3C2C1", "note": "(centres unmarked) [Mainserin]", "values": [{"measurement": "DOCA-salt induced hypertension", "setting": "[4]", "result": "prevent DOCA-salt induced hypertension"}]}
{"smiles": "Cc1[nH]nc(C(=O)N2CCN(CC(=O)c3ccc(F)cc3)CC2)c1Br", "note": "[Compound 52, 2-[4-(4-Bromo-5-methyl-1H-pyrazole-3-carbonyl)-piperazin-1-yl]-1-(4-fluoro-phenyl)-ethanone]", "values": [{"measurement": "IC50", "setting": "[3]", "result": 4.6, "unit": "nM"}]}
{"smiles": "O=CN1CCC(C(=O)NCCN2CCC(=C3c4ccccc4C=Cc4ccccc43)CC2)CC1", "note": "[AT-1015]", "values": [{"measurement": "reduction in saphenous sensory conduction velocity", "setting": "diabetic rats", "result": "completely reversed"}, {"measurement": "correction of sciatic motor conduction deficit", "setting": "diabetic rats", "result": "82.6-99.7%"}, {"measurement": "reduction in sciatic endoneurial blood flow", "setting": "diabetic rats", "result": "completely reversed"}]}
{"smiles": "COc1ccc(NC(=O)Nc2ccc(F)cc2F)cc1-c1c(Br)cnn1C", "note": "[APD125]", "values": [{"measurement": "REM sleep", "setting": "normal volunteers; human, in vivo", "result": "at the expense of REM sleep"}, {"measurement": "microarousals", "setting": "normal volunteers; human, in vivo", "result": "decreased"}, {"measurement": "number of awakenings after sleep onset", "setting": "normal volunteers; human, in vivo", "result": "decreased"}, {"measurement": "number of sleep stage shifts", "setting": "normal volunteers; human, in vivo", "result": "decreased"}, {"measurement": "sleep onset latency", "setting": "normal volunteers; human, in vivo", "result": "not decreased"}, {"measurement": "slow wave sleep and associated parameters", "setting": "normal volunteers; primarily during the early part of sleep", "result": "increased slow wave sleep and associated parameters in a dose-dependent manner"}, {"measurement": "dose of maximal effects on waking EEG", "setting": "healthy adults", "result": "40 to 80", "unit": "mg"}, {"measurement": "effects on waking EEG", "setting": "healthy adults", "result": "vigilance-lowering effects"}, {"measurement": "time of peak effects after dosing", "setting": "healthy adults; waking EEG", "result": 24, "unit": "h"}]}
{"smiles": "O=C(c1ccc(F)cc1)C1CCN(CCn2c(=O)[nH]c3ccccc3c2=O)CC1", "note": "[ketanserin]", "values": [{"measurement": "JC virus infection of human glial cells", "setting": "JC virus", "result": "inhibited JC virus infection of human glial cells"}, {"measurement": "blood pressure", "setting": "[5]", "result": "stabilize blood pressure"}, {"measurement": "protection during heatstroke", "setting": "heatstroke", "result": "protect against circulatory shocks, intracranial hypertension, and cerebral ischemia during heatstroke"}, {"measurement": "intra ocular pressure (IOP)", "setting": "glaucoma patients", "result": "significantly lower IOP"}]}
{"smiles": "Cn1cc(Cl)c(C(=O)N2CCN(CCc3ccccc3F)CC2)n1", "note": "[Compound 24, (4-Chloro-1-methyl-1H-pyrazol-3-yl)-{4-[2-(2-fluoro-phenyl)-ethyl]-piperazin-1-yl}-methanone]", "values": [{"measurement": "IC50", "setting": "[3]", "result": 36, "unit": "nM"}]}
